Source: PubChem BioAssay (NCI)
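Step 1: Grow cells in 96-well plates. Step 2: Expose to compound for 48 hours at 5 concentrations. Step 3: Interpolate endpoints linearly; if unreached, use highest concentration. TGI denotes the concentration required for complete inhibition of growth.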

Assays:
Experiment in all cases: inhibition of tumour cell growth, NCI panel, 48 h
[1] = system: NCI-H522 lung
[2] = system: M14 melanoma
[3] = system: EKVX NSCLC
[4] = system: HCT-116 colon
[5] = system: BT-549 breast
[6] = system: A549 NSCLC
[7] = system: SF-268 CNS
[8] = system: SW-620 colon
[9] = system: UACC-62 melanoma
[10] = system: OVCAR-4 ovarian
[11] = system: NCI-H23 lung
[12] = system: IGROV1 ovarian
[13] = system: UACC-257 melanoma
[14] = system: HS 578T breast
[15] = system: SK-MEL-28 melanoma
[16] = system: MDA-N
[17] = system: MALME-3M melanoma
[18] = system: HL-60(TB) leukemia
[19] = system: KM12 colon
[20] = system: HT29 colon
[21] = system: NCI-H460 lung
[22] = system: RXF 393 renal
[23] = system: CAKI-1 renal
[24] = system: UO-31 renal
[25] = system: RPMI-8226 leukemia
[26] = system: PC-3 prostate
[27] = system: COLO 205 colon
[28] = system: SN12C renal
[29] = system: OVCAR-5 ovarian
[30] = system: 786-0 renal
[31] = system: HCC-2998 colon
[32] = system: MCF7 breast
[33] = system: MDA-MB-435
[34] = system: SNB-19 CNS
[35] = system: TK-10 renal
[36] = system: A498 renal
[37] = system: DU-145 prostate
[38] = system: T-47D breast
[39] = system: SK-MEL-5 melanoma
[40] = system: SF-539 CNS
[41] = system: OVCAR-3 ovarian
[42] = system: SNB-75 CNS
[43] = system: U251 CNS
[44] = system: CCRF-CEM leukemia
[45] = system: K-562 leukemia
[46] = system: NCI/ADR-RES ovarian
[47] = system: NCI-H226 lung
[48] = system: LOX IMVI melanoma
[49] = system: HCT-15 colon
[50] = system: SK-OV-3 ovarian
[51] = system: SR leukemia
[52] = system: OVCAR-8 ovarian
[53] = system: MOLT-4 leukemia
[54] = system: SK-MEL-2 melanoma
[55] = system: MDA-MB-231 breast
[56] = system: ACHN renal
[57] = system: SF-295 CNS
[58] = system: HOP-62 NSCLC
[59] = system: HOP-92 NSCLC

## CC1(C)N=[N+]([O-])C1(C)C
[1]
  TGI: > 100 µM
[2]
  TGI: > 100 µM
[3]
  TGI: > 100 µM
[4]
  TGI: > 100 µM
[5]
  TGI: > 100 µM
[6]
  TGI: > 100 µM
[7]
  TGI: > 100 µM
[8]
  TGI: > 100 µM
[9]
  TGI: > 100 µM
[10]
  TGI: > 100 µM
[11]
  TGI: > 100 µM
[12]
  TGI: > 100 µM
[13]
  TGI: > 100 µM
[14]
  TGI: > 100 µM
[15]
  TGI: > 100 µM
[16]
  TGI: > 100 µM
[17]
  TGI: > 100 µM
[18]
  TGI: > 100 µM
[19]
  TGI: > 100 µM
[20]
  TGI: > 100 µM
[21]
  TGI: > 100 µM
[22]
  TGI: > 100 µM
[23]
  TGI: > 100 µM
[24]
  TGI: > 100 µM
[25]
  TGI: > 100 µM
[26]
  TGI: > 100 µM
[27]
  TGI: > 100 µM
[28]
  TGI: > 100 µM
[29]
  TGI: > 100 µM
[30]
  TGI: > 100 µM
[31]
  TGI: > 100 µM
[32]
  TGI: > 100 µM
[33]
  TGI: > 100 µM
[34]
  TGI: > 100 µM
[35]
  TGI: > 100 µM
[36]
  TGI: > 100 µM
[37]
  TGI: > 100 µM
[38]
  TGI: > 100 µM
[39]
  TGI: > 100 µM
[40]
  TGI: > 100 µM
[41]
  TGI: > 100 µM
[42]
  TGI: > 100 µM
[43]
  TGI: > 100 µM
[44]
  TGI: > 100 µM
[45]
  TGI: > 100 µM
[46]
  TGI: > 100 µM
[47]
  TGI: > 100 µM
[48]
  TGI: > 100 µM
[49]
  TGI: > 100 µM
[50]
  TGI: > 100 µM
[51]
  TGI: > 100 µM
[52]
  TGI: > 100 µM
[53]
  TGI: > 100 µM
[54]
  TGI: > 100 µM
[55]
  TGI: > 100 µM

## CN1CCc2cc(N)cc3c2C1Cc1ccc(O)c(O)c1-3 (centres undefined)
[1]
  TGI: > 100 µM
[2]
  TGI: > 100 µM
[3]
  TGI: > 100 µM
[4]
  TGI: > 100 µM
[5]
  TGI: > 100 µM
[6]
  TGI: > 100 µM
[7]
  TGI: > 100 µM
[8]
  TGI: > 100 µM
[9]
  TGI: 70.4 µM
[10]
  TGI: > 100 µM
[11]
  TGI: > 100 µM
[12]
  TGI: > 100 µM
[13]
  TGI: 52.9 µM
[14]
  TGI: > 100 µM
[15]
  TGI: > 100 µM
[16]
  TGI: > 100 µM
[17]
  TGI: 88.2 µM
[18]
  TGI: 98.7 µM
[19]
  TGI: > 100 µM
[20]
  TGI: > 100 µM
[21]
  TGI: > 100 µM
[22]
  TGI: > 100 µM
[23]
  TGI: > 100 µM
[24]
  TGI: 95.9 µM
[25]
  TGI: 66.4 µM
[26]
  TGI: > 100 µM
[27]
  TGI: > 100 µM
[28]
  TGI: > 100 µM
[29]
  TGI: > 100 µM
[30]
  TGI: > 100 µM
[31]
  TGI: 33.1 µM
[56]
  TGI: 58.4 µM
[33]
  TGI: > 100 µM
[34]
  TGI: > 100 µM
[35]
  TGI: > 100 µM
[57]
  TGI: > 100 µM
[36]
  TGI: > 100 µM
[37]
  TGI: > 100 µM
[38]
  TGI: > 100 µM
[39]
  TGI: 46.5 µM
[58]
  TGI: > 100 µM
[40]
  TGI: > 100 µM
[41]
  TGI: 72.8 µM
[42]
  TGI: > 100 µM
[43]
  TGI: > 100 µM
[44]
  TGI: 37.2 µM
[45]
  TGI: 85.3 µM
[46]
  TGI: > 100 µM
[59]
  TGI: > 100 µM
[47]
  TGI: 82.8 µM
[48]
  TGI: 35 µM
[49]
  TGI: > 100 µM
[50]
  TGI: > 100 µM
[51]
  TGI: > 100 µM
[52]
  TGI: > 100 µM
[53]
  TGI: 39.9 µM
[54]
  TGI: > 100 µM
[55]
  TGI: > 100 µM

## CC(=O)O[C@@H]1[C@H](C(C)C)[C@@H](OC(C)=O)C/C(C)=C/CC[C@]2(C)O[C@@H]12
[1]
  TGI: > 100 µM
[2]
  TGI: > 100 µM
[3]
  TGI: > 100 µM
[4]
  TGI: > 100 µM
[5]
  TGI: > 100 µM
[6]
  TGI: > 100 µM
[7]
  TGI: > 100 µM
[8]
  TGI: > 100 µM
[9]
  TGI: > 100 µM
[10]
  TGI: > 100 µM
[11]
  TGI: > 100 µM
[12]
  TGI: > 100 µM
[13]
  TGI: > 100 µM
[14]
  TGI: > 100 µM
[15]
  TGI: > 100 µM
[16]
  TGI: > 100 µM
[17]
  TGI: > 100 µM
[18]
  TGI: > 100 µM
[19]
  TGI: > 100 µM
[20]
  TGI: > 100 µM
[21]
  TGI: > 100 µM
[22]
  TGI: > 100 µM
[23]
  TGI: > 100 µM
[24]
  TGI: > 100 µM
[25]
  TGI: > 100 µM
[26]
  TGI: > 100 µM
[27]
  TGI: > 100 µM
[28]
  TGI: > 100 µM
[29]
  TGI: > 100 µM
[30]
  TGI: > 100 µM
[31]
  TGI: > 100 µM
[56]
  TGI: > 100 µM
[32]
  TGI: > 100 µM
[33]
  TGI: > 100 µM
[34]
  TGI: > 100 µM
[35]
  TGI: > 100 µM
[57]
  TGI: > 100 µM
[36]
  TGI: > 100 µM
[37]
  TGI: > 100 µM
[38]
  TGI: > 100 µM
[39]
  TGI: > 100 µM
[58]
  TGI: > 100 µM
[41]
  TGI: > 100 µM
[42]
  TGI: > 100 µM
[43]
  TGI: > 100 µM
[45]
  TGI: > 100 µM
[46]
  TGI: > 100 µM
[59]
  TGI: > 100 µM
[47]
  TGI: > 100 µM
[48]
  TGI: > 100 µM
[49]
  TGI: > 100 µM
[50]
  TGI: > 100 µM
[52]
  TGI: > 100 µM
[53]
  TGI: > 100 µM
[54]
  TGI: > 100 µM
[55]
  TGI: > 100 µM
